# Target: T1, human PDE2A1 (Homo sapiens, UniProt O00408)
# T1 construct: GST; purchased BPS Bioscience (San Diego, Calif.) 60020; host or cells: insect cells
# Experiment: IMAP FP PDE selectivity panel, human PDE2A1
# Type: biochemical
# Conditions: Lab B; read-out: Human PDE2 Ki (nM) Lab B
# Procedure, shortened: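 Human PDE2A1 tested alongside PDE1–11 by IMAP fluorescence polarization at room temperature. Substrate was 50 nM FAM-cAMP plus 1000 nM cGMP, buffer pH 7.2 with MgCl2 and DTT, enzyme set for 20% conversion. Ten 3-fold compound dilutions; 60 min reaction, then IMAP binding solution, 1 h, parallel/perpendicular fluorescence read.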
# T1 sequence (O00408 1-920 isoform O00408-2): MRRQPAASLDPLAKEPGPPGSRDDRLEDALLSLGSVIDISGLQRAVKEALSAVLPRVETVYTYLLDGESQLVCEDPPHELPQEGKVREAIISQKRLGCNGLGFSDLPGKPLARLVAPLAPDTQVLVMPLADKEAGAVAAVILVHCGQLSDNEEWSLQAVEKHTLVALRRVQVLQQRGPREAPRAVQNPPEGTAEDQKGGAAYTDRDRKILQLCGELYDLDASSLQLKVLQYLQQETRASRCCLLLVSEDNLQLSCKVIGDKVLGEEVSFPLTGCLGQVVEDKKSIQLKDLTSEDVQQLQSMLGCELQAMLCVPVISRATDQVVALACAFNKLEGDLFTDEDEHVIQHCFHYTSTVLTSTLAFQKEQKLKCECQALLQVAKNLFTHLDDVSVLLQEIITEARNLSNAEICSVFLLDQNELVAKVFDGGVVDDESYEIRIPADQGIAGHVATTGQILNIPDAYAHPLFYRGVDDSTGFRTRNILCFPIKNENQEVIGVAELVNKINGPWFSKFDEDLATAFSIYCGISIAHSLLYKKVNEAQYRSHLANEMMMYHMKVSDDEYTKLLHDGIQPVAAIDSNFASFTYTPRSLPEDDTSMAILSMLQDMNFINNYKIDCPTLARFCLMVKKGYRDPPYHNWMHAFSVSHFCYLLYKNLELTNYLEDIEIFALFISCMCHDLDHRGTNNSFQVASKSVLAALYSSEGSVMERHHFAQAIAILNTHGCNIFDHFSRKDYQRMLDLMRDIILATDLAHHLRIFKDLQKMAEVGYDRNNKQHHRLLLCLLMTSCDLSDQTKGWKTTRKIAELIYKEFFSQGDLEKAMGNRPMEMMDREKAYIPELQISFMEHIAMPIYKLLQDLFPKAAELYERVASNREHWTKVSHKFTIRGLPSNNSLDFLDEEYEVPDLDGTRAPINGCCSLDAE
row,Ki [nM],SMILES
1,109,"Fc1cc(C2(Nc3cc(C(F)(F)C(F)(F)F)nc4ncnn34)CC2)ccc1C(F)(F)F [Example 74, N-{1-[3-Fluoro-4-(trifluoromethyl)phenyl]cyclopropyl}-5-(pentafluoroethyl) [1,2,4]triazolo[1,5-a]pyrimidin-7-amine]"
2,375,"CNc1cc(N[C@@H](c2ccc(C(F)(F)F)c(F)c2)C(C)(C)C)n2ncnc2n1 [Example 241, (R)-N^7-(1-(3-Fluoro-4-(trifluoromethyl)phenyl)-2,2-dimethylpropyl)-N^5-methyl-[1,2,4]triazolo [1,5-a]pyrimidine-5,7-diamine]"
3,377,"CN(C)c1cc(N[C@@H](c2ccc(C(F)(F)F)c(F)c2)C(C)(C)O)n2ncnc2n1 (single isomer, unassigned) [Example 244]"
4,26,"Cc1cc(N[C@@H](c2ccc(C3(C)CC3)cc2)C(C)C)n2ncnc2n1 [Example 24, 5-Methyl-N-{(1R)-2-methyl-1-[4-(1-methyl-cyclopropyl)phenyl]propyl} [1,2,4]triazolo[1,5-a]pyrimidin-7-amine]"
5,> 2960,"CC(C)(C)c1cc(NC(c2ccc(OC(F)(F)F)c(F)c2)C(C)(C)O)n2ncnc2n1 (single isomer, unassigned) [Example 146, (1S or R)-1-[(5-tert-Butyl[1,2,4]triazolo[1,5-a]pyrimidin-7-yl)amino]-1-[3-fluoro-4-(trifluoro-methoxy)phenyl]-2-methylpropan-2-ol]"
6,92,"OCc1cc(NC2(c3ccc(C(F)(F)F)c(F)c3)CC2)n2ncnc2n1 [Example 78, [7-({1-[3-Fluoro-4-(trifluoromethyl)phenyl]cyclopropyl}amino)[1,2,4]triazolo[1,5-a]pyrimidin-5-yl]methanol]"
7,7.8,"CC(C)(O)[C@@H](Nc1cc(C(F)F)cc2ncnn12)c1ccc(S(F)(F)(F)(F)F)cc1 [Example 282, (1S)-1-{[7-(Difluoromethyl) [1,2,4]triazolo[1,5-a]pyridin-5-yl]amino}-2-methyl-1-[4-(pentafluoro-λ^6-sulfanyl)phenyl]propan-2-ol]"
8,13,"Cc1cc(NC(c2ccc(C(C)(C)C)cc2)C(C)(C)O)n2ncnc2n1 (single isomer, unassigned) [Example 107]"
9,67,"Cc1cc(N[C@@H](c2ccc(C(F)(F)F)c(F)c2)C(C)(C)C)n2nc(CF)nc2n1 [Example 191, 2-(Fluoromethyl)-N-{(1R)-1-[3-fluoro-4-(trifluoromethyl)phenyl]-2,2-dimethylpropyl}-5-methyl[1,2,4]triazolo[1,5-a]pyrimidin-7-amine]"
10,25,"Fc1cc(C2(Nc3cc(C4CC4)nc4ncnn34)CC2)ccc1OC(F)(F)F [Example 71, 5-Cyclopropyl-N-{1-[3-fluoro-4-(trifluoromethoxy)phenyl]cyclo-propyl}[1,2,4]triazolo[1,5-a]pyrimidin-7-amine]"
11,> 2960,"CC(C)(N)C(Nc1cc(C(F)(F)F)nc2ncnn12)c1ccc(C(F)(F)F)c(F)c1 (single isomer, unassigned) [Example 254, (S)- or (R)-1-(3-Fluoro-4-(trifluoromethyl)phenyl)-2-methyl-N^1-(5-(trifluoromethyl)-[1,2,4]triazolo [1,5-a]pyrimidin-7-yl) propane-1,2-diamine]"
12,356,"Cc1cc(NC(c2ccc(C(F)(F)F)nc2)C(C)(C)O)n2ncnc2n1 (single isomer, unassigned) [Example 226, (S)- or (R)-2-Methyl-1-(5-methyl-[1,2,4]triazolo [1,5-a]pyrimidin-7-ylamino)-1-(6-(trifluoromethyl)pyridin-3-yl) propan-2-ol]"
13,75,"Cc1cc(NC2(c3ccc(SC(F)(F)F)cc3)CCC2)n2ncnc2n1 [Example 65, 5-Methyl-N-(1-{4-[(trifluoromethyl)sulfanyl]phenyl}cyclobutyl)[1,2,4] triazolo[1,5-a]pyrimidin-7-amine]"
14,48,"Cc1cc(NC(C)(C)c2ccc(C(F)(F)F)c(F)c2)n2ncnc2n1 [Example 46, N-{1-[3-Fluoro-4-(trifluoromethyl)phenyl]-1-methylethyl}-5-methyl [1,2,4]triazolo[1,5-a]pyrimidin-7-amine]"
15,766,"Cc1cc(N[C@H](CC(C)(C)O)c2ccc(C(F)(F)F)c(F)c2)n2ncnc2n1 [Example 152, (4R)-4-[3-Fluoro-4-(trifluoromethyl)phenyl]-2-methyl-4-[(5-methyl[1,2,4]triazolo[1,5-a]pyrimidin-7-yl)amino]butan-2-ol]"
16,10,"Cc1cc(N[C@@H](c2ccc(C(F)(F)F)c(F)c2)C(C)(C)C)n2ncnc2n1 [Example 27, N-{(1R)-1-[3-Fluoro-4-(trifluoromethyl)phenyl]-2,2-dimethylpropyl}-5-methyl[1,2,4]triazolo[1,5-a] pyrimidin-7-amine]"

row,Ki [nM],SMILES
1,182,"Cc1cc(NC(C)(C)c2ccc(SC(F)(F)F)c(F)c2)n2ncnc2n1 [Example 50, N-(1-{3-Fluoro-4-[(trifluoromethyl)sulfanyl]phenyl}-1-methylethyl)-5-methyl[1,2,4]triazolo[1,5-a] pyrimidin-7-amine]"
2,> 2960,"Cc1cc(NC(c2ccc3c(c2)OC(F)(F)O3)C(C)(C)O)n2ncnc2n1 (single isomer, unassigned) [Example 112, (1S or R)-1-(2,2-Difluoro-1,3-benzodioxol-5-yl)-2-methyl-1-[(5-methyl[1,2,4]triazolo[1,5-a]pyrimidin-7-yl)amino]propan-2-ol]"
3,33,"CCc1nc2nc(C)cc(N[C@@H](c3ccc(C(F)(F)F)c(F)c3)C(C)(C)C)n2n1 [Example 203, (R)-2-Ethyl-N-(1-(3-fluoro-4-(trifluoromethyl)phenyl)-2,2-dimethylpropyl)-5-methyl-[1,2,4]triazolo [1,5-a]pyrimidin-7-amine]"
4,> 2960,"Cc1cc(N[C@@H](c2ccc(C(F)(F)F)c(F)c2)C(C)(C)O)nc2ncnn12 (single isomer, unassigned) [Example 292]"
5,81,"CC(C)(O)C(Nc1cc(C(F)(F)F)nc2ncnn12)c1ccc(C(F)(F)F)cc1Cl (single isomer, unassigned) [Example 160, (1R or S)-1-[2-chloro-4-(trifluoromethyl)phenyl]-2-methyl-1-{[5-(trifluoromethyl)[1,2,4]triazolo[1,5-a]pyrimidin-7-yl]amino}propan-2-ol]"
6,> 2960,"Cc1cc(NC2(c3cccc(C(F)(F)F)c3F)COC2)n2ncnc2n1 [Example 200, N-(3-(2-Fluoro-3-(trifluoromethyl)phenyl)oxetan-3-yl)-5-methyl-[1,2,4]triazolo [1,5-a]pyrimidin-7-amine]"
7,> 2960,"COCC(Nc1cc(C(F)(F)F)nc2ncnn12)c1ccc(C(F)(F)F)c(F)c1 (single isomer, unassigned) [Example 218, (S)- or (R)-N-(1-(3-Fluoro-4-(trifluoromethyl)phenyl)-2-methoxyethyl)-5-(trifluoromethyl)-[1,2,4]triazolo [1,5-a]pyrimidin-7-amine]"
8,40,"CC(C)(O)[C@@H](Nc1cc(C(F)F)cc2ncnn12)c1ccc(OC(F)(F)F)cc1F [Example 281, (1S)-1-{[7-(Difluoromethyl) [1,2,4]triazolo[1,5-a]pyridin-5-yl]amino}-1-[2-fluoro-4-(trifluoromethoxy)phenyl]-2-methylpropan-2-ol]"
9,> 2960,"CC(C)(O)C(Nc1cc(C2CC2)nc2ncnn12)c1ccc(OC(F)(F)F)cc1F (single isomer, unassigned) [Example 142, (1S or R)-1-[(5- Cyclopropyl [1,2,4]triazolo [1,5-a]pyrimidin-7-yl)amino]-1-[2-fluoro-4-(trifluoro-methoxy)phenyl]-2-methylpropan-2-ol]"
10,> 2960,"CC(C)(C)c1cc(NC(c2ccc(OC(F)(F)F)cc2F)C(C)(C)O)n2ncnc2n1 (single isomer, unassigned) [Example 148, (1S or R)-1-[(5-tert-butyl[1,2,4]triazolo[1,5-a]pyrimidin-7-yl)amino]-1-[2-fluoro-4-(trifluoro-methoxy)phenyl]-2-methylpropan-2-ol]"
11,204,"OCCCc1cc(NC2(c3ccc(C(F)(F)F)c(F)c3)CC2)n2ncnc2n1 [Example 245, 3-(7-((1-(3-Fluoro-4-(trifluoromethyl)phenyl)cyclopropyl)amino)-[1,2,4]triazo[1,5-a]pyrimidin-5-yl)propan-1-ol]"
12,24,"Cc1cc(N(C)C(c2ccc(OC(F)(F)F)c(F)c2)C(C)(C)O)n2ncnc2n1 (single isomer, unassigned) [Example 247, (R)- or (S)-1-(3-Fluoro-4-(trifluoromethoxy)phenyl)-2-methyl-1-(methyl(5-methyl-[1,2,4]triazolo [1,5-a]pyrimidine-7-yl)amino)propan-2-ol]"
13,12,"CC1(c2ccc(C(Nc3cc(C(F)(F)F)nc4ncnn34)C(C)(C)O)cc2)CC1 (single isomer, unassigned) [Example 180, (1R or S)-2-Methyl-1-[4-(1-methylcyclopropyl)phenyl]-1-{[5-(trifluoromethyl) [1,2,4]triazolo [1,5-a]pyrimidin-7-yl]amino} propan-2-ol]"
14,132,"Cc1cc(N[C@H](C)c2ccc(OC(F)(F)F)cc2)n2ncnc2n1 [Example 7, 5-Methyl-N-{(1R)-1-[4-(trifluoromethoxy)phenyl]ethyl} [1,2,4]triazolo[1,5-a]pyrimidin-7-amine]"
15,207,"Cc1cc(NC(C)(C)c2ccc(OC(F)(F)F)c(F)c2)n2ncnc2n1 [Example 45, N-{1-[3-Fluoro-4-(trifluoromethoxy)phenyl]-1-methylethyl}-5-methyl[1,2,4]triazolo[1,5-a]pyrimidin-7-amine]"
16,32,"Cc1cc(NC2(c3ccc(OC(F)(F)F)c(F)c3)CC2)n2ncnc2n1 [Example 60, N-{1-[3-Fluoro-4-(trifluoromethoxy)phenyl]cyclopropyl}5-methyl-[1,2,4]triazolo[1,5-a]pyrimidin-7-amine]"
